The text below walks through data of patent US11590116B2 (THERAVANCE BIOPHARMA R&D IP, LLC, priority 2019, dated 2023).

A value given as a limit tells only on which side of the number the result lay.

Experiment [1] relates to TGF-β-stimulated SMAD3 phosphorylation in BEAS-2B cells. The experiment can be described thus: Cellular ALK5 potency assay, inhibition of TGF-β stimulated pSMAD3 formation in BEAS-2B cells. As to conditions: Homo sapiens; inhibition of TGF-β stimulated pSMAD3 formation, BEAS-2B cells; read-out: BEAS2B pIC50 (converted). Format: cell-based. A digest of the protocol: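 BEAS-2B human lung epithelial cells pre-treated 1 h at 37° C with compound in HBSS/25 mM HEPES/1% BSA, then stimulated 30 min with 10 ng/mL TGF-β (final). Lysates assayed for pSMAD3 by AlphaLISA; pIC50 from dose-dependent change versus stimulated untreated cells.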

The target of experiment [2] is T1, recombinant human ALK5 (TGF-βR1) protein (Homo sapiens, UniProt P36897).
T1 construct: purchased Life Technologies PR9075A
T1 sequence (P36897 34-503): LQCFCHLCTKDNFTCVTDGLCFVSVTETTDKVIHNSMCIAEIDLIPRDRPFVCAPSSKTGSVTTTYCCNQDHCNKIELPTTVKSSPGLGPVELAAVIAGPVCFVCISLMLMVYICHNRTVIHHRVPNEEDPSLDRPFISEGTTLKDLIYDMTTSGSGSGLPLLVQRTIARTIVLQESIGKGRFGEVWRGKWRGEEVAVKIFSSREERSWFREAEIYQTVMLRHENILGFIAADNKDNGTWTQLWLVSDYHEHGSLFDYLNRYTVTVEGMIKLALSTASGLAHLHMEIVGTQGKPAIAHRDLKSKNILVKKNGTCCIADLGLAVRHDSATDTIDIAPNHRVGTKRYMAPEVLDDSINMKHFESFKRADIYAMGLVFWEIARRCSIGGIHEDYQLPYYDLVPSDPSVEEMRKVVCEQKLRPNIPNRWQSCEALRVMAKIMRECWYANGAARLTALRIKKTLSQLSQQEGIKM
The experiment can be described thus: Biochemical ALK5 (TGF-βR1) assay to measure pKi (LANCE Ultra ULight kinase assay). Conditions: apparent pKi from pIC50 by Cheng-Prusoff, read-out: ALK5 pKi (converted). Summed up:
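Dose range 10 μM–25 pM; enzyme + compound 60 min RT; ATP added (5× stock 125 μM, 2 mM DTT); 60 min 37 °C; stop with EDTA + Eu anti-phospho-Topo IIα Thr1342 Ab; TR-FRET ex 320/340, em 665 nm. 4-param pIC50 → pKi (Cheng-Prusoff).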

As for `Cc1cccc(-c2n[nH]cc2-c2ccc3ncc(-c4ncn5c4CNCC5)cc3n2)n1` [Compound 118, 2-[3-(6-methyl-2-pyridyl)-1H-pyrazol-4-yl]-7-(5,6,7,8-tetrahydroimidazo[1,5-a]pyrazin-1-yl)-1,5-naphthyridine], in experiment [1], the IC50 is 25.1 to 158 nM. In addition, in experiment [2], the Ki is 0.0398 to 0.316 nM.
Taken in the same sequence, the figures for `Cc1cccc(-c2n[nH]cc2-c2ccc3ncc(NCC4CCCNC4)cc3n2)n1` (stereo not shown) [Compound 199, 6-[3-(6-methyl-2-pyridyl)-1H-pyrazol-4-yl]-N-(3-piperidylmethyl)-1,5-naphthyridin-3-amine] were 200 to 1260 nM and 0.0398 to 0.316 nM.
On the same counts, the results for `Cc1cccc(-c2[nH]cnc2-c2ccc3ncc(N4CCC(N)CC4)cc3c2)n1` [Compound 438, 1-[6-[5-(6-methyl-2-pyridyl)-1H-imidazol-4-yl]-3-quinolyl]piperidin-4-amine] are 25.1 to 158 nM and 0.0398 to 0.316 nM.
For `Cc1cccc(-c2n[nH]cc2-c2ccc3ncc(-c4cnn(C5COC5)c4)cc3n2)n1` [Compound 669, 2-[3-(6-methyl-2-pyridyl)-1H-pyrazol-4-yl]-7-[1-(oxetan-3-yl)pyrazol-4-yl]-1,5-naphthyridine], the IC50 in experiment [1] was less than 20 nM. The Ki in experiment [2] was less than 0.0316 nM.
As for `Cc1cccc(-c2[nH]cnc2-c2ccc3ncc(NCCN4CC5(CNC5)C4)cc3c2)n1` [Compound 709, N-[2-(2,6-diazaspiro[3.3]heptan-2-yl)ethyl]-6-[5-(6-methyl-2-pyridyl)-1H-imidazol-4-yl]quinolin-3-amine], the IC50 in experiment [1] is 25.1 to 158 nM. The Ki in experiment [2] is 0.0398 to 0.316 nM.
For the molecule `Cc1cccc(-c2[nH]cnc2-c2ccc3ncc(C4=CCC(NCc5ccccc5)CC4)cc3n2)n1` (stereo not shown) [Compound 228, N-benzyl-4-[6-[5-(6-methyl-2-pyridyl)-1H-imidazol-4-yl]-1,5-naphthyridin-3-yl]cyclohex-3-en-1-amine], the IC50 in experiment [1] was 200 to 1260 nM. Further, in experiment [2], the Ki was 0.0398 to 0.316 nM.
Taken in the same sequence, the figures for `Cc1cccc(-c2[nH]cnc2-c2ccc3ncc(-c4cncc(C(=O)O)c4)cc3c2)n1` [Compound 795, 5-[6-[5-(6-methyl-2-pyridyl)-1H-imidazol-4-yl]-3-quinolyl]pyridine-3-carboxylic acid] were 1580 to 10000 nM and 0.398 to 3.16 nM.
On the same counts, the results for `Cc1cccc(-c2[nH]cnc2-c2ccc3ncc(-c4ccc5c(c4)CC[C@@H]5N)cc3c2)n1` [Compound 1056, (1S)-5-[6-[5-(6-methyl-2-pyridyl)-1H-imidazol-4-yl]-3-quinolyl]indan-1-amine] are 25.1 to 158 nM and 0.0398 to 0.316 nM.
On the same counts, the results for `Cc1cccc(-c2n[nH]cc2-c2ccc3ncc(N4CCNC[C@H]4C)cc3n2)n1` [Compound 271, 7-[(2R)-2-methylpiperazin-1-yl]-2-[3-(6-methyl-2-pyridyl)-1H-pyrazol-4-yl]-1,5-naphthyridine] are 25.1 to 158 nM and 0.0398 to 0.316 nM.
For the molecule `Cc1cccc(-c2n[nH]cc2-c2ccc3ncc(N4CCN[C@@H](C(=O)N(C)C)C4)cc3n2)n1` [Compound 204, (2R)-N,N-dimethyl-4-[6-[3-(6-methyl-2-pyridyl)-1H-pyrazol-4-yl]-1,5-naphthyridin-3-yl]piperazine-2-carboxamide], the IC50 in experiment [1] is 25.1 to 158 nM. Moreover, the Ki in experiment [2] is 0.0398 to 0.316 nM.
Taken in the same sequence, the figures for `Cc1cccc(-c2[nH]nnc2-c2ccc3ncc(-c4c[nH]nc4C(F)(F)F)cc3n2)n1` [Compound 521, 2-[5-(6-methyl-2-pyridyl)-1H-triazol-4-yl]-7-[3-(trifluoromethyl)-1H-pyrazol-4-yl]-1,5-naphthyridine] were 25.1 to 158 nM and 0.398 to 3.16 nM.
Take `Cc1cccc(-c2[nH]cnc2-c2ccc3ncc(-c4csc(C(=O)OC5CNC5)c4)cc3c2)n1` [Compound 752, azetidin-3-yl 4-[6-[5-(6-methyl-2-pyridyl)-1H-imidazol-4-yl]-3-quinolyl]thiophene-2-carboxylate]: the IC50 in experiment [1] was 25.1 to 158 nM. In addition, in experiment [2], the Ki was 0.0398 to 0.316 nM.
Taken in the same sequence, the figures for `CC(C)N1CCN(CCNc2cnc3ccc(-c4c[nH]nc4-c4cccc(C(F)(F)F)n4)nc3c2)CC1` [Compound 201, N-(2-(4-isopropylpiperazin-1-yl)ethyl)-6-(3-(6-(trifluoromethyl)pyridin-2-yl)-1H-pyrazol-4-yl)-1,5-naphthyridin-3-amine] were 25.1 to 158 nM and 0.0398 to 0.316 nM.
On the same counts, the results for `Cc1cccc(-c2[nH]cnc2-c2ccc3ncc(NCCN4CCCC4(C)C)cc3n2)n1` [Compound 627, N-[2-(2,2-dimethylpyrrolidin-1-yl)ethyl]-6-[5-(6-methyl-2-pyridyl)-1H-imidazol-4-yl]-1,5-naphthyridin-3-amine] are 25.1 to 158 nM and 0.0398 to 0.316 nM.
Taken in the same sequence, the figures for `Cc1cccc(-c2[nH]cnc2-c2ccc3ncc(-c4ncc(C(=O)O[C@@H]5CCNC5)s4)cc3c2)n1` [Compound 1166, [(3R)-pyrrolidin-3-yl] 2-[6-[5-(6-methyl-2-pyridyl)-1H-imidazol-4-yl]-3-quinolyl]thiazole-5-carboxylate] were 25.1 to 158 nM and 0.0398 to 0.316 nM.
`Cc1cccc(-c2[nH]nnc2-c2ccc3ncc(N4CCCNCC4)cc3c2)n1` [Compound 339, 3-(1,4-diazepan-1-yl)-6-[5-(6-methyl-2-pyridyl)-1H-triazol-4-yl]quinoline]: the IC50 in experiment [1] was 200 to 1260 nM. Moreover, in experiment [2], the Ki is 0.398 to 3.16 nM.
Taken in the same sequence, the figures for `Cc1cccc(-c2[nH]cnc2-c2ccc3ncc(N4CCNC(CC(=O)OCC5CNC5)C4)cc3c2)n1` (stereo not shown) [Compound 491, azetidin-3-ylmethyl 2-[4-[6-[5-(6-methyl-2-pyridyl)-1H-imidazol-4-yl]-3-quinolyl]piperazin-2-yl]acetate] were 200 to 1260 nM and 0.0398 to 0.316 nM.
On the same counts, the results for `Cc1cccc(-c2[nH]cnc2-c2ccc3ncc(-c4cccc(C(=O)O)c4)cc3c2)n1` [Compound 794, 3-[6-[5-(6-methyl-2-pyridyl)-1H-imidazol-4-yl]-3-quinolyl]benzoic acid] are 1580 to 10000 nM and 0.0398 to 0.316 nM.
With `Cc1cccc(-c2n[nH]cc2-c2ccc3ncc(N4CCNCC4)cc3n2)n1` [Compound 73, 2-[3-(6-methyl-2-pyridyl)-1H-pyrazol-4-yl]-7-piperazin-1-yl-1,5-naphthyridine], the IC50 in experiment [1] was less than 20 nM. In addition, the Ki in experiment [2] is less than 0.0316 nM.
Taken in the same sequence, the figures for `Cc1cccc(-c2[nH]cnc2-c2ccc3ncc(N4CCC(C(=O)O)CC4)cc3c2)n1` [Compound 213, 1-(6-(5-(6-methylpyridin-2-yl)-1H-imidazol-4-yl)quinolin-3-yl)piperidine-4-carboxylic acid] were 200 to 1260 nM and 0.0398 to 0.316 nM.
Taken in the same sequence, the figures for `Cc1cccc(-c2[nH]cnc2-c2ccc3ncc(Nc4cnn(C5CNC5)c4)cc3c2)n1` [Compound 227, N-[1-(azetidin-3-yl)pyrazol-4-yl]-6-[5-(6-methyl-2-pyridyl)-1H-imidazol-4-yl]quinolin-3-amine] were 200 to 1260 nM and 0.0398 to 0.316 nM.
On the same counts, the results for `Cc1nc(-c2n[nH]cc2-c2ccc3ncc(-c4cc5n(n4)CCNC5)cc3n2)ccc1F` [Compound 391, 2-[3-(5-fluoro-6-methyl-2-pyridyl)-1H-pyrazol-4-yl]-7-(4,5,6,7-tetrahydropyrazolo[1,5-a]pyrazin-2-yl)-1,5-naphthyridine] are less than 20 nM and less than 0.0316 nM.
Regarding `Cc1cccc(-c2[nH]cnc2-c2ccc3ncc(-c4csc(C(=O)O[C@@H]5CCN(C)C5)c4)cc3c2)n1` [Compound 750, [(3R)-1-methylpyrrolidin-3-yl] 4-[6-[5-(6-methyl-2-pyridyl)-1H-imidazol-4-yl]-3-quinolyl]thiophene-2-carboxylate], the IC50 in experiment [1] was less than 20 nM. Moreover, in experiment [2], the Ki was 0.0398 to 0.316 nM.
Taken in the same sequence, the figures for `COc1[nH]nc(-c2cccc(C)n2)c1-c1ccc2ncc(N3CCNCC3)cc2n1` [Compound 33, 2-(5-methoxy-3-(6-methylpyridin-2-yl)-1H-pyrazol-4-yl)-7-(piperazin-1-yl)-1,5-naphthyridine] were 25.1 to 158 nM and 0.0398 to 0.316 nM.
On the same counts, the results for `Cc1nc(-c2n[nH]cc2-c2ccc3ncc(NCCN4CCN(C(C)C)CC4)cc3n2)ccc1F` [Compound 43, 6-[3-(5-fluoro-6-methyl-2-pyridyl)-1H-pyrazol-4-yl]-N-[2-(4-isopropylpiperazin-1-yl)ethyl]-1,5-naphthyridin-3-amine] are 25.1 to 158 nM and 0.0398 to 0.316 nM.
On the same counts, the results for `Cc1cccc(-c2nnn(C)c2-c2ccc3ncc(NCCN4CCN(C(C)C)CC4)cc3c2)n1` [Compound 244, N-[2-(4-isopropylpiperazin-1-yl)ethyl]-6-[3-methyl-5-(6-methyl-2-pyridyl)triazol-4-yl]quinolin-3-amine] are 25.1 to 158 nM and 0.0398 to 0.316 nM.
